Test results reported in ChEMBL document CHEMBL5550212, “Structural and Physicochemical Features of Oral PROTACs” (J Med Chem, 2024).
Blank lines part the entries; values can stand above or below the compound they belong to.

Columns and labels:
[1] = Clearance in C57BL/6 mouse at 1 mg/kg, po measured upto 24 hrs by LC-MS/MS analysis; format: ADME, organism-based; settings: in vivo
[2] = Chromatographic hydrophobicity index, logD of the compound; format: physicochemical
[3] = Oral bioavailability in C57BL/6 mouse at 1 mg/kg measured upto 24 hrs by LC-MS/MS analysis; format: ADME, organism-based; settings: in vivo
[4] = target: T1, Estrogen receptor (Homo sapiens) (UniProt P03372); experiment: Induction of ERalpha degradation in human MCF7 cells relative to control; format: cell-based
T1 sequence (whole entry): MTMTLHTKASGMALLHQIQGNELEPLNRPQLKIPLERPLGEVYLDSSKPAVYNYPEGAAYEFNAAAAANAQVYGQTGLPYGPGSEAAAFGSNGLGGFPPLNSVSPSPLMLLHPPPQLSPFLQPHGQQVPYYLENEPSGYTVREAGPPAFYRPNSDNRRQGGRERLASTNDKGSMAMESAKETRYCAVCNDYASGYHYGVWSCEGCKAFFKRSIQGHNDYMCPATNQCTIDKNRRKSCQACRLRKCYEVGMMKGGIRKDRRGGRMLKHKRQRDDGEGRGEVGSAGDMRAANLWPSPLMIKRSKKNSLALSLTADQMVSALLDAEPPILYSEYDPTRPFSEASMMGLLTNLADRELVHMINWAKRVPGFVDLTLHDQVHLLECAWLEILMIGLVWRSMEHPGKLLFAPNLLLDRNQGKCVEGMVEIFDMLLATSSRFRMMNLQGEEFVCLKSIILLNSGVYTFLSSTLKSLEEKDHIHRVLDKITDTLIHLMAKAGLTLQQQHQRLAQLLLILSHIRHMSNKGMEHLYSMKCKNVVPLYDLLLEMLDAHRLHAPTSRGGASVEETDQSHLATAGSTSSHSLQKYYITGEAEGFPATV

Estrogen receptor = target: T2, Estrogen receptor (Homo sapiens, UniProt P03372); experiment: Induction of ERalpha degradation in human MCF7 cells; format: cell-based
T2 sequence (P03372 whole entry): T1 sequence (whole entry)

[5] = Drug uptake in mouse plasma at 30 mg/kg, po; format: ADME, organism-based; settings: in vivo
[6] = Half-life in C57BL/6 mouse at 1 mg/kg, po measured upto 24 hrs by LC-MS/MS analysis; format: ADME, organism-based; settings: in vivo
[7] = Half-life in Beagle dog at 1 mg/kg, po measured upto 24 hrs by LC-MS/MS analysis; format: ADME, organism-based, Canis lupus familiaris; settings: in vivo
[8] = Clearance in Han Wistar rat at 1 mg/kg, po measured upto 24 hrs by LC-MS/MS analysis; format: ADME, organism-based; settings: in vivo
[9] = Half-life in Han Wistar rat at 1 mg/kg, po measured upto 24 hrs by LC-MS/MS analysis; format: ADME, organism-based; settings: in vivo
[10] = Lipophilicity, logD of the compound at pH 7.4 by shake-flask assay; format: physicochemical; settings: buffer
[11] = Oral bioavailability in Beagle dog at 1 mg/kg measured upto 24 hrs by LC-MS/MS analysis; format: ADME, organism-based, Canis lupus familiaris; settings: in vivo
[12] = Volume of distribution at steady state in C57BL/6 mouse at 1 mg/kg, po measured upto 24 hrs by LC-MS/MS analysis; format: ADME, organism-based; settings: in vivo
[13] = Oral bioavailability in Han Wistar rat at 1 mg/kg measured upto 24 hrs by LC-MS/MS analysis; format: ADME, organism-based; settings: in vivo
[14] = Volume of distribution at steady state in Han Wistar rat at 1 mg/kg, po measured upto 24 hrs by LC-MS/MS analysis; format: ADME, organism-based; settings: in vivo
[15] = Clearance in Beagle dog at 1 mg/kg, po measured upto 24 hrs by LC-MS/MS analysis; format: ADME, organism-based, Canis lupus familiaris; settings: in vivo
[16] = Volume of distribution at steady state in Beagle dog at 1 mg/kg, po measured upto 24 hrs by LC-MS/MS analysis; format: ADME, organism-based, Canis lupus familiaris; settings: in vivo
Androgen receptor [17] = target: T3, Androgen receptor (Homo sapiens, UniProt P10275); experiment: Induction of AR degradation in human VCaP cells; format: cell-based
T3 sequence (P10275 whole entry): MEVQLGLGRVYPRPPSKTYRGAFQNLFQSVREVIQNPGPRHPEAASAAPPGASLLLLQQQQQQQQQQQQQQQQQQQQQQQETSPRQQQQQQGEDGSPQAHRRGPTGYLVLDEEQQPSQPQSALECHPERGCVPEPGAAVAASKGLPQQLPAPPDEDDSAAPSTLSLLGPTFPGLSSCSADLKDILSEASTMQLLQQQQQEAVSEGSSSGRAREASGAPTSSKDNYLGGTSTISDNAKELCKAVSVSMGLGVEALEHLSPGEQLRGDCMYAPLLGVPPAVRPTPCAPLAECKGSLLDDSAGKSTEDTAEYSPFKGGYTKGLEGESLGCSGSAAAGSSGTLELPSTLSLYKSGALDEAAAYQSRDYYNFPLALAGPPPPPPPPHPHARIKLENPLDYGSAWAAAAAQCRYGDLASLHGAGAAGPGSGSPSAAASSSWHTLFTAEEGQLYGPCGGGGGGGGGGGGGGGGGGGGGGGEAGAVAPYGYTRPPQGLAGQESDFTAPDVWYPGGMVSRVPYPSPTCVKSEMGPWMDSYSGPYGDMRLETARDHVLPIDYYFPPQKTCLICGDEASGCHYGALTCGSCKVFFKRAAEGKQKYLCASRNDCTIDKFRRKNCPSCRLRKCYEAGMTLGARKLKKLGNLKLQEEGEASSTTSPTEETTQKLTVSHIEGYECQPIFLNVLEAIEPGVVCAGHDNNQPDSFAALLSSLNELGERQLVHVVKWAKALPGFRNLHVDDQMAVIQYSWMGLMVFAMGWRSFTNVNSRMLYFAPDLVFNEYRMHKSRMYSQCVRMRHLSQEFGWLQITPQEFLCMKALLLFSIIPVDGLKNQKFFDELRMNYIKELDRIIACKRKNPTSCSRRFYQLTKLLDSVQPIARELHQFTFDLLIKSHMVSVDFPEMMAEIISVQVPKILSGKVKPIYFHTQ

[18] = target: T4, Androgen receptor (Homo sapiens) (UniProt P10275); experiment: Induction of AR degradation in human VCaP cells relative to control; format: cell-based
T4 sequence (whole entry): T3 sequence (P10275 whole entry)

[19] = target: T4, Androgen receptor (Homo sapiens); experiment: Induction of AR degradation in human LNCaP cells relative to control; format: cell-based
Androgen receptor [20] = target: T3, Androgen receptor; experiment: Induction of AR degradation in human LNCaP cells; format: cell-based
[21] = Dissociation constant, pKa of the compound; format: physicochemical
[22] = Drug uptake in mouse plasma at 60 mg/kg, po; format: ADME, organism-based; settings: in vivo

CL/F [1]: 5.3 mL/min/kg
CHI [2]: 7
bioavailability [3]: 38%
Compound: C[C@@H]1Cc2c(n(C)c3ccccc23)[C@@H](c2cnc(N3CCC(CCN4CCN(c5ccc6c(c5)CN(C5CCC(=O)NC5=O)C6=O)CC4)CC3)nc2)N1CC(C)(C)F (mixture of isomers)

CL/F [1]: 5 mL/min/kg
CHI [2]: 6.1
Emax [4]: > 90%
IC50 (Estrogen receptor): ≤ 1 nM
bioavailability [3]: 15%
Compound: C[C@@H]1Cc2c([nH]c3ccccc23)[C@@H](c2cnc(N3CCC(CCN4CCN(c5ccc6c(c5)CN(C5CCC(=O)NC5=O)C6=O)CC4)CC3)nc2)N1CC(C)(C)F (stereo not given in full)

CL/F [1]: 26.6 mL/min/kg
CHI [2]: 4.7
Emax [4]: > 90%
IC50 (Estrogen receptor): ≤ 1 nM
bioavailability [3]: < 1%
Compound: C[C@@H]1Cc2c([nH]c3ccccc23)[C@@H](c2cnc(N3CCC(CNC4CCN(c5ccc6c(c5)CN(C5CCC(=O)NC5=O)C6=O)CC4)CC3)nc2)N1CC(C)(C)F (stereo not given in full)

Drug uptake [5]: Active
Compound: Cc1ncsc1-c1ccc([C@H](CC[C@H](C)CCN2CCC(c3ccc4c(c3)n3c5cccc(Br)c5c(=O)nc3n4C3CCCC3)CC2)NC(=O)[C@@H]2C[C@@H](O)CN2C(=O)[C@@H](NC(=O)C2(F)CC2)C(C)(C)C)cc1

CL/F [1]: 6.1 mL/min/kg
CHI [2]: 6.1
Emax [4]: > 90%
IC50 (Estrogen receptor): ≤ 1 nM
bioavailability [3]: 45%
Compound: C[C@@H]1Cc2c([nH]c3ccccc23)[C@@H](c2cnc(N3CCC(CN4CCN(c5ccc6c(c5)CN(C5CCC(=O)NC5=O)C6=O)CC4)CC3)nc2)N1CC(C)(C)F (stereo not given in full)

CL/F [1]: 19.3 mL/min/kg
CHI [2]: 5.6
Emax [4]: > 90%
IC50 (Estrogen receptor): ≤ 1 nM
bioavailability [3]: 12%
Compound: C[C@@H]1Cc2c([nH]c3ccccc23)[C@@H](c2cnc(N3CCC(CN(C)C4CCN(c5ccc6c(c5)CN(C5CCC(=O)NC5=O)C6=O)CC4)CC3)nc2)N1CC(C)(C)F (stereo not given in full)

CL/F [1]: 3.9 mL/min/kg
CHI [2]: 5.1
half-life [6]: 13 h
half-life [7]: 32 h
CL/F [8]: 9 mL/min/kg
half-life [9]: 9.3 h
logD [10]: 4.8
bioavailability [3]: 65%
bioavailability [11]: 14%
Vdss [12]: 3.8 L/kg
bioavailability [13]: 51%
Vdss [14]: 7.8 L/kg
CL/F [15]: 4.7 mL/min/kg
Vdss [16]: 13 L/kg
Compound: N#Cc1ccc(O[C@H]2CC[C@H](NC(=O)c3ccc(N4CCC(CN5CCN(c6cc7c(cc6F)C(=O)N(C6CCC(=O)NC6=O)C7=O)CC5)CC4)nn3)CC2)cc1Cl (stereo not given in full) [BAVDEGALUTAMIDE]

CL/F [1]: 51.4 mL/min/kg
CHI [2]: 4.6
Emax [4]: > 90%
IC50 (Estrogen receptor): ≤ 1 nM
bioavailability [3]: < 1%
Compound: C[C@@H]1Cc2c([nH]c3ccccc23)[C@@H](c2cnc(N3CCC(NC4CCN(c5ccc6c(c5)CN(C5CCC(=O)NC5=O)C6=O)CC4)CC3)nc2)N1CC(C)(C)F (stereo not given in full)

DC50 (Androgen receptor [17]): 1 nM
Emax [18]: < 50%
Compound: COc1cc(O[C@H]2C(C)(C)[C@H](NC(=O)c3ccc(N4CCC(CN5CCN(c6ccc(C(=O)N[C@@H]7CCC(=O)NC7=O)c(F)c6)CC5)CC4)cc3)C2(C)C)ccc1C#N

CL/F [1]: 4.7 mL/min/kg
CHI [2]: 5.9
Emax [19]: 96%
DC50 (Androgen receptor [20]): 6 nM
bioavailability [3]: 2%
Compound: Cc1ncsc1-c1ccc([C@H](C)NC(=O)[C@@H]2C[C@@H](O)CN2C(=O)[C@@H](NC(=O)COCCCCCNc2ccc(C(=O)N[C@H]3C(C)(C)[C@H](Oc4ccc(C#N)c(Cl)c4)C3(C)C)cc2)C(C)(C)C)cc1

CL/F [1]: 4.2 mL/min/kg
CHI [2]: 5
half-life [6]: 6.8 h
DC50 (Androgen receptor [17]): < 1 nM
half-life [7]: 31 h
CL/F [8]: 16 mL/min/kg
Emax [18]: > 70%
half-life [9]: 7.4 h
logD [10]: 4.7
bioavailability [3]: 58%
bioavailability [11]: 33%
Vdss [12]: 2.3 L/kg
bioavailability [13]: 38%
Vdss [14]: 9.1 L/kg
CL/F [15]: 6.4 mL/min/kg
Vdss [16]: 15 L/kg
Compound: COc1cc(O[C@H]2C(C)(C)[C@H](NC(=O)c3ccc(N4CCC(CN5CCN(c6ccc(C(=O)N[C@H]7CCC(=O)NC7=O)c(F)c6)CC5)CC4)cc3)C2(C)C)ccc1C#N [LUXDEGALUTAMIDE]

CL/F [1]: 17 mL/min/kg
CHI [2]: 2.3
CL/F [8]: 51 mL/min/kg
logD [10]: 3.6
bioavailability [3]: 24%
bioavailability [11]: 51%
Vdss [12]: 2.7 L/kg
bioavailability [13]: 7%
pKa [21]: 8.5
Vdss [14]: 7.7 L/kg
CL/F [15]: 16 mL/min/kg
Vdss [16]: 6.7 L/kg
Compound: Cn1c(=O)n(C2CCC(=O)NC2=O)c2cccc(C#CCOC3CCN(C[C@H]4CC[C@H](n5cc(NC(=O)c6cnn7ccc(N8C[C@H]9C[C@@H]8CO9)nc67)c(C(F)F)n5)CC4)CC3)c21 (stereo not given in full) [KT-474]

Drug uptake [22]: Active
Compound: Cc1ncsc1-c1ccc(CNC(=O)[C@@H]2C[C@@H](O)CN2C(=O)[C@@H](NC(=O)CCCCCCCCCCNC(=O)O[C@H]2C[C@@H](C)C=C3C=C[C@H](C)[C@H](CC[C@@H]4C[C@@H](O)CC(=O)O4)[C@H]32)C(C)(C)C)cc1

CL/F [1]: 35 mL/min/kg
CHI [2]: 5.3
half-life [6]: 6.2 h
half-life [7]: 11 h
CL/F [8]: 28 mL/min/kg
half-life [9]: 15 h
logD [10]: 4.6
bioavailability [3]: 59%
bioavailability [11]: 5%
bioavailability [13]: 24%
CL/F [15]: 3 mL/min/kg
Compound: O=C1CC[C@H](N2Cc3cc(N4CCN(CC5CCN(c6ccc([C@@H]7c8ccc(O)cc8CC[C@@H]7c7ccccc7)cc6)CC5)CC4)ccc3C2=O)C(=O)N1 [VEPDEGESTRANT]
